Key:
[1] = test system: H358 human non-small cell lung cancer cells; assay: Inhibition test of in vitro cell level phosphorylation activity (pERK); format: cell-based; conditions: NCI-H358, ERK phosphorylation inhibition, compound 1 h
Protocol: Test Example 1 Inhibition Test of In Vitro Cell Level Phosphorylation Activity
1.2 Test Method for In Vitro Cell Level Phosphorylation Activity
A dish of H358 human non-small cell lung cancer cells (Nanjing Cobioer Biosciences Co., Ltd.) in logarithmic growth phase and good cell condition were added to a centrifuge tube and centrifuged at 1000 rpm for 5 min in a low speed benchtop centrifuge. The supernatant was discarded, and 5 mL of a plating medium containing 5% FBS was added using a pipette for cell resuspension. The cell suspension was loaded on a cell counter for counting, and diluted with the plating medium to adjust the cell density to 1.5×10^5 cells/mL. The cells were seeded on a black clear-bottom 384-well plate at 40 μL/well using a multi-channel pipette, and cultured overnight in a cell incubator at 37° C., 5% CO2 and saturated humidity. […] The medium was discarded after 1 h, 40 μL, of 4% polyoxymethylene was added to each well, and the plate was incubated for 20 min at room temperature and washed with PBS. […] 20 μL of 5% BSA blocking buffer was added to each well, and the blocking buffer was discarded after the plate was blocked for 1 h at room temperature. 20 μL of the primary antibody mixed solution was added to each well, wherein Rabbit anti-pERK was diluted at 1:1000 (final concentration) and mouse anti-GAPDH was diluted at 1:5000 (final concentration), and the plate was incubated overnight at 4° C. and washed with PBST. 20 μL of the secondary antibody mixed solution was added to each well, wherein goat anti rabbit 800 and goat anti mouse 647 were both diluted at 1:1000 (final concentration), and the plate was incubated in the dark at room temperature for 45 min and washed with PBST.

KRAS-G12C/SOS1 = target: T1, KRAS-G12C/SOS1 (Homo sapiens, UniProt Q07889); assay: biochemical
T1 sequence (Q07889 564-1049): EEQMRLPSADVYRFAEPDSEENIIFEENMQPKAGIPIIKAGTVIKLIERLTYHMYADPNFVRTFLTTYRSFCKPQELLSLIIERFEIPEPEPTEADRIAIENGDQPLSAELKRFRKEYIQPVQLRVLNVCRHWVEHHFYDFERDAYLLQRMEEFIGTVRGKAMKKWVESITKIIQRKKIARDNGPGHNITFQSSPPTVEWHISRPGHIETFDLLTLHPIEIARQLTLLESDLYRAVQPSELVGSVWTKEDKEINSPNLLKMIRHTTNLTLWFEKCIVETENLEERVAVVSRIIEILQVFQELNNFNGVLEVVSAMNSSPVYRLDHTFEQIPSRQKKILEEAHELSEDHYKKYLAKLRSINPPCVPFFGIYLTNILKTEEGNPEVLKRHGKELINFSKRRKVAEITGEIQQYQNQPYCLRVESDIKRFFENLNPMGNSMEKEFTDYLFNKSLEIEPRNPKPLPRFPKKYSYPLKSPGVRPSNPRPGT

K562 cells = assay: Assay for proliferation inhibitory activity of K562 cells; format: cell-based; conditions: Homo sapiens, 72 h, CCK-8, read-out: K562 cell proliferation inhibition IC50
Protocol: Test Example 4 Assay for Proliferation Inhibitory Activity of K562 Cells
The K562 cell line can be purchased from the American Type Culture Collection (ATCC).
The K562 cells in a good growth state were added to a centrifuge tube with the cell density adjusted to 3×10^4/mL, and seeded on a 96-well plate (100 μL/well). The cells were cultured overnight in a cell incubator, the compound was loaded using a nanoliter pipettor to allow the final compound concentration to be 10000 nM to 4.6 nM, 2 replicate wells were set and control was set.

SOS1cat / KRAS G12C = target: T2, SOS1cat / KRAS G12C (Homo sapiens, UniProt Q07889); assay: Guanine nucleotide exchange test (HTRF); format: biochemical; conditions: SOS1cat-mediated loading of EDA-GTP-DY-647P1 on His-KRAS G12C, 20° C.; read-out: Nucleotide conversion of HTRF IC50
T2 sequence (Q07889 564-1049): T1 sequence (Q07889 564-1049)
Protocol: Test Example 2 Guanine Nucleotide Exchange Test
This test quantitatively investigates the ability of SOS to mediate KRAS activation. KRAS G12C with a His tag was added to the system, anti-His antibody labeled with lanthanide Eu was combined with the system, then auxiliary protein SOS1cat and GTP analogue EDA-GTP-DY-647P1 with fluorophore were added thereto, the GTP analogue with fluorophore was loaded on KRAS G12C with the assistance of the auxiliary protein, and then energy resonance transfer occurred between Anti-6HS-Cryptate (FRET donor) and EDA-GTP-DY-647P1 (FRET acceptor).
However, after pretreatment with SOS1 inhibitor compounds, the ability of SOS1 to bind and mediate KRAS activation was weakened, and the ability of FRET between donor and acceptor was weakened.
Test buffer was prepared with the following components: HEPES pH 7.4: 20 mM; NaCl: 150 mM; MgCl2: 0.5 mM; DTT: 2 mM; BSA: 0.05%; and Igepal: 0.0025%.
KRAS G12C working solution, SOS1cat working solution and blank control solution were prepared with the test buffers; wherein the KRAS G12C working solution contained 100 nM His-KRAS G12C and 2 nM […]; the SOS1cat working solution contained 20 nM SOS1cat and 200 nM EDA-GTP-DY-647P1; and the blank control solution contained 100 nM EDA-GTP-DY-647P1.
The whole test procedures were completed at 20° C.

| SMILES | EC50 [1] [nM] | IC50 (KRAS-G12C/SOS1) [nM] | IC50 (K562 cells) [nM] | IC50 (SOS1cat / KRAS G12C) [nM] |
| --- | --- | --- | --- | --- |
| COc1cc2nc(C)nc(N[C@H](C)c3cccc(C(F)F)c3C)c2cc1P1(=O)CCN(C(C)=O)CC1 [Example 12] | 103 |  |  |  |
| COc1cc2nc(C)nc(N[C@H](C)c3cccc(C(F)F)c3C)c2cc1P1(=O)CCN(C(=O)C2CC2)CC1 [Example 14] | 108 |  |  |  |
| COc1cc2nc(C)nc(N[C@H](C)c3cccc(C(C)(F)F)c3F)c2cc1P1(=O)CCN(C(C)=O)CC1 [Example 15] | 148 |  |  |  |
| COc1cc2nc(C)nc(N[C@H](C)c3cccc(C(C)(F)F)c3F)c2cc1P1(=O)CCN(C(=O)C2CC2)CC1 [Example 17] | 82 |  |  |  |
| COc1cc2nc(C)nc(N[C@H](C)c3cc(N)cc(C(F)(F)F)c3C)c2cc1P1(=O)CCN(C(C)=O)CC1 [Example 18] | 71 |  |  |  |
| Cc1nc(N[C@H](C)c2cccc(C(F)F)c2F)c2cc(P3(=O)CCN(S(C)(=O)=O)CC3)ncc2n1 [Example 20] |  | 78 | 292 | 482 |
| Cc1nc(N[C@H](C)c2cccc(C(F)F)c2F)c2cc(P3(=O)CCN(S(=O)(=O)C4CC4)CC3)ncc2n1 [Example 21] |  | 58 | 187 | 481 |
| Cc1nc(N[C@H](C)c2cccc(C(F)F)c2F)c2cc(P3(=O)CCN(S(C)(=O)=O)CC3)ccc2n1 [Example 27] |  | 61 | 469 | 542 |
| Cc1nc(N[C@H](C)c2cccc(C(F)(F)F)c2F)c2cc(P3(=O)CCCCC3)ncc2n1 [Example 42] |  | 81 | 562 | 572 |
| Cc1nc(N[C@H](C)c2cccc(C(F)(F)F)c2F)c2cc(P3(=O)CCCC3)ncc2n1 [Example 43] |  | 215 | 1070 | 717 |
| COc1cc2nc(C)nc(N[C@H](C)c3cc(N)cc(C(F)F)c3)c2cc1P1(=O)CCCCC1 [Example 65] |  | 56 | 433 | 482 |
